Results: US7452862B2, “Conformationally-controlled biologically active macrocyclic small molecules as motilin antagonists or ghrelin agonists” (Tranzyme Pharma, Inc., priority 2003, dated 2008)

How the values were obtained:
human motilin receptor = molecular target: T1, human motilin receptor (Homo sapiens, UniProt O43193); assay: Competitive radioligand binding assay (motilin receptor), Method B1; conditions: read-out: Binding Affinity [Ki (μM)]
T1 construct: purchased PerkinElmer 6110544; host or cells: CHO cells, stably transfected
Method: (§1) The compounds of the present invention were evaluated for their ability to interact at the human motilin receptor and the human ghrelin receptor utilizing competitive redioligand binding assays as described in Method B1 and B2, respectively. Further characterization of the interaction can be performed utilizing the functional assays described in Methods B3 and B4 for the motilin and ghrelin receptors, respectively. All of these methods can be conducted, if so desired, in a high throughput manner to permit the simultaneous evaluation of many compounds.
Competitive Radioligand Binding Assay (Motilin Receptor)
• Membranes were prepared from CHO cells stably transfected with the human motilin receptor and utilized at a quantity of 1.5 μg/assay point. [PerkinElmer™ SignalScreen® Product #6110544, PerkinElmer, Inc. Wellesley, MA] • [^125I]-Motilin (PerkinElmer, #NEX-378); final concentration: 0.04-0.06 nM • Motilin (Bachem™, #H-4385, Bachem Bioscience Inc., King of Prussia, PA.); final concentration: 1 μM • Multiscreen® Harvest plates-GF/B (Millipore™, #MAHFB1H60, Billerica, MA) • Deep-well polypropylene titer plate (Beckman Coulter™,#267006, Fullerton, CA) • TopSeal-A™ (PerkinElmer, #6005185, Wellesley, MA) • Bottom seal (Millipore, #MATAH0P00) • MicroScint-0™(PerkinElmer,#6013611, Wellesley, MA) • Binding Buffer: 50 mM Tris-HCl (pH 7.4), 10 mM MgCl2, 1 mM EDTA, 0.1% BSA Assay Volumes: • 150 μL of membranes diluted in binding buffer • 10 μL of compound diluted in binding buffer • 10 μL of radioligand ([^125I]-Motilin) diluted in binding buffer Final Test Concentrations (N=11) for Compounds: • 10, 5, 2, 1, 0.5, 0.2, 0.1, 0.05, 0.02, 0.01, 0.005 μM. Compound Handling:
(§2) Compounds were provided frozen on dry ice at a stock concentration of 10 mM diluted in 100% DMSO and stored at −20° C. until the day of testing. On the test day, compounds were allowed to thaw at room temperature and than diluted in assay buffer according to the desired test concentrations. Under these conditions, the maximum final DMSO concentration in the assay was 0.5%.
In deep-well plates, diluted cell membranes (1.5 μg/mL) are combined with 10 μL of either binding buffer (total binding, N=5), 1 μM motilin (non-specific binding, N=3) or the appropriate concentration of test compound. The reaction is initiated by addition of 10 μl of [^125I]-motilin (final conc. 0.04-0.06 nM) to each well. Plates are sealed with TopSeal-A™, vortexed gently and incubated at room temperature for 2 hours. The reaction is arrested by filtering samples through pre-soaked (0.3% polyethyleneimine, 2 h) Multiscreen®Harvest plates using a Tomtec® Harvester (Tomtec, Hamden, CT), washed 9 times with 500 μL of cold 50 mM Tris-HCI (pH 7.4), and than plates are air-dried in a fumehood for 30 minutes. A bottom seal is applied to the plates prior to the addition of 25 μL of MicroScint-0 ® to each well. Plates are then sealed with TopSeal-A™ and counted for 30 sec per well on a TopCount® Microplate Scintillation and Luminescence Counter (PerkinElmer, Wellesley, MA) where results are expressed as counts per minute (cpm).
Data are analyzed by GrapbPad™ Prism® (GraphPad Software, San Diego, CA) using a variable slope non-linear regression analysis.
[formula] where total and non-specific binding represent the cpm obtained in the absence or presence of 1 μM motilin, respectively.

[1] = molecular target: T2, human ghrelin receptor (hGHS-R1a) (Homo sapiens, UniProt Q92847); assay: Competitive radioligand binding assay (ghrelin receptor), Method B2; conditions: read-out: Binding Affinity [Ki (μM)]
T2 construct: purchased PerkinElmer BioSignal RBHGHSM, lot#1887; host or cells: HEK-293 cells, stably transfected
Method: as §1
Competitive Radioligand Binding Assay (Ghrelin Receptor)
The competitive binding assay at the human growth hormone secretagogue receptor (hGHS-R1a) was carried out analogously to assays described in the literature. (Bednarek M A et al. (2000), Structure-function studies on the new growth hormone-releasing peptide ghrelin: minimal sequence of ghrelin necessary for activation of growth hormone secretagogue receptor 1 a; J Med Chem 43:43704376. Palucki B L et al. (2001), Spiro(indoline-3,4′-piperidine) growth hormone secretagogues as ghrelin mimetics; Bioorg Med Chem Lett 11:1955-1957.)
• Membranes (GHS-R/HEK 293) were prepared from HEK-293 cells stably transfected with the human ghrelin receptor (hGHS-Rla). These membranes were provided by PerkinElmer BioSignal® (#RBHGHSM, lot#1887, PerkinlElmer, Wellesley, MA) and utilized at a quantity of 0.71 μg/assay point. • [^125I]-Ghrelin (PerkinElmer, #NEX-388); final concentration: 0.0070-0.0085 nM • Ghrelin(Bachem, #H-4864, Bachem Bioscience Inc., King of Prussia, PA); final concentration: 1 μM • Multiscreen® Harvest plates-GF/C (Millipore, #MAHFC1H60, Billerica, MA) • Deep-well polypropylene titer plate (Beckman Coulter, #267006, Fullerton, CA) • TopSeal-A™ (PerkinElmer, #6005185, Wellesley, MA) • Bottom seal (Millipore, #MATAH0P00) • MicroScint-0™ (PerkinElmer, #6013611, Wellesley, MA) • Binding Buffer: 25 mM Hepes (pH 7.4), 1 mM CaCl2, 5 mM MgCl2, 2.5 mM EDTA, 0.4% BSA Assay Volumes
Competition experiments were performed in a 300 μL filtration assay format. • 220 μL of membranes diluted in binding buffer • 40 μL of compound diluted in binding buffer • 40 μL of radioligand ([^125I]-Ghrelin) diluted in binding buffer
Final test concentrations (N=1) for compounds of the present invention: • 10, 1, 0.5, 0.2, 0.1, 0.05, 0.02, 0.01, 0.005, 0.002, 0.001 μM. Compound Handling
as §2, with “−80°” for “−20°”, “rt overnight” for “room temperature”, “then” for “than”, “maximal” for “maximum”, “0.1%.” for “0.5%.”
In deep-well plates, 220 μL of diluted cell membranes (final concentration: 0.71 μg/well) were combined with 40 μL of either binding buffer (total binding, N =5), 1 μM ghrelin (non-specific binding, N =3) or the appropriate concentration of test compound (N =2 for each test concentration). The reaction was initiated by addition of 40 μL of [^125I]-ghrelin (final conc. 0.0070-0.0085 nM) to each well. Plates were sealed with TopSeal-A™, vortexed gently and incubated at rt for 30 min. The reaction was arrested by filtering samples through Multiscreen® Harvest plates (pre-soaked in 0.5% polyethyleneimine) using a Tomtec®Harvester (Tomtec, Hamden, CT), washed 9 times with 500 μL of cold 50 mM Tris-HCl (pH 7.4, 4° C), and then plates were air-dried in a fumehood for 30 min. A bottom seal was applied to the plates prior to the addition of 25 μL of MicroScint-0™ to each well. Plates were than sealed with TopSeal-A™ and counted for 30 sec per well on a TopCount® Microplate Scintillation and Luminescence Counter (PerkinElmer, Wellesley, MA) using a count delay of 60 sec. Results were expressed as counts per minute (cpm). […]

T2 sequence (Q92847 whole entry): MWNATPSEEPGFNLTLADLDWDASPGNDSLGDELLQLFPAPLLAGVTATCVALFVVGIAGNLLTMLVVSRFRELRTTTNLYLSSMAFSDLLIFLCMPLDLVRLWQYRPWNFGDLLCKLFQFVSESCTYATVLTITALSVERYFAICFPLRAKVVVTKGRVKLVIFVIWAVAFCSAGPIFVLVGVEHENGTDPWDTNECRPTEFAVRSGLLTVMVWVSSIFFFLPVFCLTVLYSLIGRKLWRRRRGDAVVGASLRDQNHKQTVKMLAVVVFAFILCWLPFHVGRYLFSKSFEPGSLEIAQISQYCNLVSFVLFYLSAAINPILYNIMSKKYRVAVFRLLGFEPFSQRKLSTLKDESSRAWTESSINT
T1 sequence (O43193 whole entry): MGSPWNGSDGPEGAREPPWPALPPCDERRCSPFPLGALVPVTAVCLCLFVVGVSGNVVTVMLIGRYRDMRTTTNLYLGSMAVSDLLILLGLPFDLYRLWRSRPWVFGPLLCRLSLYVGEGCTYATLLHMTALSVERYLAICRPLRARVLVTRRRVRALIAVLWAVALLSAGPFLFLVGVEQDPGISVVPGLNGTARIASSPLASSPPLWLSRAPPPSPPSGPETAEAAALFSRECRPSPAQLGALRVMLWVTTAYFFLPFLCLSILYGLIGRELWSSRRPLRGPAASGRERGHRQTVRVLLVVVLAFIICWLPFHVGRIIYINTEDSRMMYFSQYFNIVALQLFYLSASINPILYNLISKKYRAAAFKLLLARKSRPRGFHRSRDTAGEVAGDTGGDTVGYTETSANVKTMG

In the case of `CCC[C@@H]1NC(=O)[C@@H](C(C)C)NC(=O)[C@@H](Cc2ccc(OC)cc2)NC(C)COc2ccccc2CCCNC1=O` (stereo partly drawn) [compound 222], the Ki (human motilin receptor) is reported as 0.001 to 0.1 µM.

Compound `CCC(C)[C@@H]1NC[C@@H](C)Oc2ccccc2CCCNC(=O)[C@@H](Cc2ccccc2)NC(=O)[C@@H](C)N(C)C1=O` (stereo partly drawn) [compound 242] has a Ki [1] of 0.001 to 0.1 µM.

Work on `CCC[C@@H]1NC(=O)[C@@H](C(C)C)NC(=O)[C@@H](Cc2ccc(O)cc2)NC[C@H](C)Oc2ccccc2CCCNC1=O` [compound 226] yielded a Ki (human motilin receptor) of 0.1 to 1 µM.

In the case of `CC(C)[C@H]1NC(=O)[C@@H](Cc2cccc(F)c2)N[C@@H](C)COc2ccccc2CCCNC(=O)[C@H](CC2CC2)NC1=O` [compound 208], the Ki (human motilin receptor) is reported as 0.001 to 0.1 µM.

Work on `CC(C)[C@H]1NC(=O)[C@@H](Cc2cccc(Cl)c2)NCCOc2ccccc2C[C@H](C)CNC(=O)[C@H](CC2CC2)NC1=O` [compound 207] yielded a Ki (human motilin receptor) of 0.001 to 0.1 µM.

`CC(C)[C@H]1NC(=O)[C@@H](Cc2cccc(F)c2)NC[C@@H](C)Oc2ccccc2CCCNC(=O)[C@H](CC2CC2)NC1=O` [compound 220] gave a Ki (human motilin receptor) of 0.1 to 1 µM.

In the case of `CC(C)[C@H]1NC(=O)[C@@H](Cc2cccc(Cl)c2)NCCOc2ccccc2C[C@@H](C)CNC(=O)[C@H](CC2CC2)NC1=O` [compound 211], the Ki (human motilin receptor) is reported as 0.001 to 0.1 µM.

`CC1CNC(C2CC2)C(=O)N(C)C(C)C(=O)NC(Cc2ccc(F)cc2)C(=O)NCCCc2ccccc2O1` (stereo not drawn) [compound 244] was tested, and the Ki [1] was 0.001 to 0.1 µM.

`CC(C)[C@H]1NC(=O)[C@@H](Cc2cccc(F)c2)NCCOc2ccccc2C[C@@H](C)CNC(=O)[C@H](CN(C)C)NC1=O` [compound 205] was tested, and the Ki (human motilin receptor) was 0.1 to 1 µM.

Compound `CC(C)[C@H]1NC(=O)[C@@H](Cc2cccc(F)c2)N[C@H](C)COc2ccccc2CCCNC(=O)[C@H](CC2CC2)NC1=O` [compound 217] has a Ki (human motilin receptor) of 0.1 to 1 µM.

`CC(C)[C@H]1NC(=O)[C@@H](Cc2cccc(Cl)c2)NCCOc2ccccc2C[C@@H](O)CNC(=O)[C@H](CC2CC2)NC1=O` [compound 216] showed a Ki (human motilin receptor) of 0.001 to 0.1 µM.

`CC(C)[C@H]1NC(=O)[C@@H](Cc2cccc(C(F)(F)F)c2)NCCOc2ccccc2C[C@@H](C)CNC(=O)[C@H](CNC(=N)N)NC1=O` [compound 204] was tested, and the Ki (human motilin receptor) was 0.001 to 0.1 µM.

`CC1COc2ccccc2CCCNC(=O)[C@H](CC2CC2)NC(=O)[C@@H](C(C)C)NC(=O)[C@@H](Cc2cccc(Cl)c2)N1` (stereo partly drawn) [compound 223] was tested, and the Ki (human motilin receptor) was 0.001 to 0.1 µM.

With `CC(C)[C@H]1NC(=O)[C@@H](Cc2cccc(F)c2)NCCOc2ccccc2C[C@@H](C)CNC(=O)[C@H](CC2CC2)NC1=O` [compound 214] the Ki (human motilin receptor) was 0.001 to 0.1 µM.

`CC1CNC(=O)[C@H](CC2CC2)NC(=O)[C@@H](C(C)C)NC(=O)[C@@H](Cc2cccc(Cl)c2)NCCOc2ccccc2C1` (stereo partly drawn) [compound 209] showed a Ki (human motilin receptor) of 0.001 to 0.1 µM.

Work on `CC(C)[C@H]1NC(=O)[C@@H](Cc2cccc(C(F)(F)F)c2)NCCOc2ccccc2C[C@H](C)CNC(=O)[C@H](CNC(=N)N)NC1=O` [compound 201] yielded a Ki (human motilin receptor) of 0.001 to 0.1 µM.

`CC(C)[C@H]1NC(=O)[C@@H](Cc2cccc(F)c2)NCCOc2ccccc2C[C@@H](O)CNC(=O)[C@H](CC2CC2)NC1=O` [compound 219] was tested, and the Ki (human motilin receptor) was 0.1 to 1 µM.

Compound `CC1CNC(=O)C(Cc2ccc(F)cc2)NC(=O)C(C)N(C)C(=O)C(C2CC2)NCCOc2ccccc2C1` (stereo not drawn) [compound 248] has a Ki [1] of 0.1 to 1 µM.

In the case of `CC(C)[C@H]1NC(=O)[C@@H](Cc2cccc(Cl)c2)NCCOc2ccccc2C[C@H](O)CNC(=O)[C@H](CC2CC2)NC1=O` [compound 215], the Ki (human motilin receptor) is reported as 0.001 to 0.1 µM.

`CCC[C@@H]1NC(=O)[C@@H](C(C)C)NC(=O)[C@@H](Cc2ccc(O)cc2)NC[C@@H](C)Oc2ccccc2CCCNC1=O` [compound 227] gave a Ki (human motilin receptor) of 0.1 to 1 µM.

Work on `CC(C)[C@H]1NC(=O)[C@@H](Cc2cccc(F)c2)NCCOc2ccccc2C[C@H](O)CNC(=O)[C@H](CC2CC2)NC1=O` [compound 218] yielded a Ki (human motilin receptor) of 0.1 to 1 µM.

For `CCC(C)C1NCCOc2ccccc2CC(C)CNC(=O)C(Cc2cccc(Cl)c2)NC(=O)C2(CCCC2)NC1=O` (stereo not drawn) [compound 257], the Ki [1] was 0.001 to 0.1 µM.

In the case of `CC(C)[C@H]1NC(=O)[C@@H](Cc2cccc(Cl)c2)N[C@@H](C)COc2ccccc2CCCNC(=O)[C@H](CNC(=N)N)NC1=O` [compound 203], the Ki (human motilin receptor) is reported as 0.001 to 0.1 µM.

`CCC(C)[C@@H]1NC[C@H](C)Oc2ccccc2CCCNC(=O)[C@@H](Cc2ccccc2)NC(=O)[C@@H](C)N(C)C1=O` (stereo partly drawn) [compound 243] gave a Ki [1] of 0.001 to 0.1 µM.

`CCC(C)C1NCC(C)Oc2ccccc2CCCNC(=O)C(Cc2cccc(Cl)c2)NC(=O)C2(CCCC2)NC1=O` (stereo not drawn) [compound 254] was tested, and the Ki [1] was 0.001 to 0.1 µM.

`CC1COc2ccccc2CCCNC(=O)C(Cc2ccc(F)cc2)NC(=O)C(C)N(C)C(=O)C(C2CC2)N1` (stereo not drawn) [compound 241] showed a Ki [1] of 0.001 to 0.1 µM.

Compound `CCC(C)C1NCCOc2ccccc2C(C)CCNC(=O)C(Cc2cccc(Cl)c2)NC(=O)C2(CCCC2)NC1=O` (stereo not drawn) [compound 256] has a Ki [1] of 0.1 to 1 µM.
